SMILES strings stand for the structures.

The text below walks through data of patent US9119396B2, “Method for promoting plant growth” (SUMITOMO CHEMICAL COMPANY, LIMITED, priority 2011, dated 2015).

The test system of this experiment is Corn (cultivar: Kuromochi). Description: Test Example 2: promotion of growth by treatment of corn seeds. The class given is in vivo. Particulars: corn seed treatment, 50 g per 100 kg of seeds; cultivated 18 days at 27° C. As to the method:
Evaluation Test for Promotion of Growth by Treatment of Corn Seeds Corn (cultivar: Kuromochi) A blank slurry solution containing 10% (V/V) color coat red (Becker Underwood, Inc.), 10% (V/V) CF-Clear (Becker Underwood, Inc.) and 1.66% Maxim 4FS (Syngenta) was prepared. A slurry solution was prepared by dissolving the present compound 1 in the blank slurry solution such that 50 g of the compound is applied to each 100 kg of corn seeds. In a 50-ml centrifuge tube (manufactured by BD Japan), 0.35 ml of the slurry solution was placed for each 14.4 g of corn seeds and stirred until the solution was dried, thereby coating the seeds. In addition, seeds were coated with the blank slurry solution and used as seeds for a non-treated group. One of the treated seeds was sown in culture soil (AISAI) in each pot (55 mm in diameter×58 mm in height) and cultivated for 18 days under the conditions of a temperature of 27° C., an illuminance of 5,000 lux, and a day length of 16 hours. After the cultivation, the fresh weight of the overground part of the plants was measured. The experiment was performed in three replications for each treatment condition and the average weight per individual was calculated. […]

As for `COC(=O)c1cc2cc(C(F)(F)F)ccc2s1` [compound 1], the “fresh weight of the overground part of plants vs non-treated group” value was “much heavier”.
